Experimental data as given in US20050019425A1, “Composition and method” (priority 2001, published 2005).

Tests used:
[1] = Clinical signs, food intake, body weight, blood and thyroid hormone measurements in dogs during the 24-week feeding study; format: in vivo, dog (Beagle); conditions: diets with 0 to 5 mg added selenium/kg, study period 24 weeks
Protocol: (§1) Study Design: Thirty-six adult dogs are divided into six groups of six dogs in each group based on their age, gender and body condition score so that the averages of those three criteria are similar among groups. All dogs are given the basal diet for three weeks (pre-treatment period) before they are allocated to one of the experimental diets. The third week of the pre-treatment period is considered as week 0 of the study. Hair growth is measured in weeks 0, 11 and 22 of the study using the method described below. Dogs are fed with the experimental diets for 24 weeks.
(§2) A torula yeast basal diet is used. The basal diet is nutritionally complete and balanced for an adult dog except for selenium. Different amounts of selenium (as selenomethionine) are added into the basal diet to form six experimental diets which contain 0, 0.05, 0.1, 0.5, 1 or 5 mg selenium/kg diet dry matter, respectively. Selenium concentrations in the experimental diets are confirmed by chemical analyses. The analyzed dietary selenium concentrations were 0.034, 0.085, 0.123, 0.527, 1.025 and 5.045 mg/kg dry matter, respectively.

Hair growth of Beagles = experiment: Hair growth measurement in adult beagles fed diets with various levels of selenium; format: in vivo, dog (Beagle)
Text: Adult beagles of both male and females are used. They are between 1.2 and 3.7 years of age at the start of the experiment.
as §1, §2
Hair Growth Measurement: Hairs in an area of […] on the left side of the body above the hind leg and about 3 cm away from the spinal are clipped with an electronic clipper (Oster Pro™ Model 78400-01A, blade size: 40.1 mm, Oster Elite™). The hair is cut as close to the skin as possible. A tattoo dot of about 1 mm in diameter is made in the center of the clipped area using a tattoo marker (Spaulding Special Electric Tattoo Marker, Model SSEMK). Hair growth is measured by taking photographs from the same clipped area twice using the tattoo dot as a marker. The first photograph is taken right after the clipping and the second photograph four days later. A Polaroid close-up camera (CU-5) and Polaroid 665 films are used to take photographs. A glass slide is attached to the front frame of the camera to press hairs to the skin to minimize errors caused by the angle formed between standing hair and the skin. The image is magnified three times by the camera. Same exposure conditions are used for all dogs in the study. On each day of photograph shooting, a photograph is also taken of a ruler with clear markers under the same conditions and serves as a reference. After exposure, both prints and negatives of the films are treated according to the use directions. The negative films provide sharp and clear images of hairs and are used for hair growth measurement. The negative films are scanned (EPSON Expression 836XL) into a computer. Afterwards, the length of primary hairs in the film is measured using an image analyzing software (BioScan Optimas). The difference of the average hair lengths between the first and the second photographs from the same dog is the hair growth during the four-day period.

SMILES: C[Se]CC[C@H](N)C(=O)O [selenium, selenomethionine]
- Average food intake and body weights [1]: not affected by the dietary treatments
- Blood CBC and chemistry measurements, serum total thyroxine and 3,5,3'-triiodothyronine [1]: within the normal ranges
- Hair growth (Hair growth of Beagles; dietary Se 0.034 mg/kg dry matter (0 added), Week 0 (pre-treatment, basal diet)): 0.21 mm/day
- Hair growth (Hair growth of Beagles; dietary Se 0.034 mg/kg dry matter (0 added), Week 11): 0.12 mm/day
- Hair growth (Hair growth of Beagles; dietary Se 0.034 mg/kg dry matter (0 added), Week 22): 0.12 mm/day
- Hair growth (Hair growth of Beagles; dietary Se 0.085 mg/kg dry matter (0.05 added), Week 0 (pre-treatment, basal diet)): 0.18 mm/day
- Hair growth (Hair growth of Beagles; dietary Se 0.085 mg/kg dry matter (0.05 added), Week 11): 0.15 mm/day
- Hair growth (Hair growth of Beagles; dietary Se 0.085 mg/kg dry matter (0.05 added), Week 22): 0.11 mm/day
- Hair growth (Hair growth of Beagles; dietary Se 0.123 mg/kg dry matter (0.1 added), Week 0 (pre-treatment, basal diet)): 0.13 mm/day
- Hair growth (Hair growth of Beagles; dietary Se 0.123 mg/kg dry matter (0.1 added), Week 11): 0.26 mm/day
- Hair growth (Hair growth of Beagles; dietary Se 0.123 mg/kg dry matter (0.1 added), Week 22): 0.20 mm/day
- Hair growth (Hair growth of Beagles; dietary Se 0.527 mg/kg dry matter (0.5 added), Week 0 (pre-treatment, basal diet)): 0.15 mm/day
- Hair growth (Hair growth of Beagles; dietary Se 0.527 mg/kg dry matter (0.5 added), Week 11): 0.22 mm/day
- Hair growth (Hair growth of Beagles; dietary Se 0.527 mg/kg dry matter (0.5 added), Week 22): 0.23 mm/day
- Hair growth (Hair growth of Beagles; dietary Se 1.025 mg/kg dry matter (1 added), Week 0 (pre-treatment, basal diet)): 0.18 mm/day
- Hair growth (Hair growth of Beagles; dietary Se 1.025 mg/kg dry matter (1 added), Week 11): 0.26 mm/day
- Hair growth (Hair growth of Beagles; dietary Se 1.025 mg/kg dry matter (1 added), Week 22): 0.20 mm/day
- Hair growth (Hair growth of Beagles; dietary Se 5.045 mg/kg dry matter (5 added), Week 0 (pre-treatment, basal diet)): 0.20 mm/day
- Hair growth (Hair growth of Beagles; dietary Se 5.045 mg/kg dry matter (5 added), Week 11): 0.14 mm/day
- Hair growth (Hair growth of Beagles; dietary Se 5.045 mg/kg dry matter (5 added), Week 22): 0.13 mm/day
- Effect on hair growth of dogs (conclusion) (Hair growth of Beagles; dietary selenium concentrations from 0.1 to about 4.5 mg selenium/kg diet): maximize hair growth of dogs
- Rate of hair growth compared between diet groups (Hair growth of Beagles; diets containing 0.1, 0.5 or 1 mg selenium/kg vs 0, 0.05 or 5 mg selenium/kg, week 11 and 22): significantly (p<0.05) higher rate of hair growth
- Difference in hair growth among groups (Hair growth of Beagles; week 0 (pre-treatment)): no difference in hair growth among groups
